What was measured:
Format in all cases: physicochemical
[1] = Solubility of N-tert-butyloxycarbonylpentaglycine esters (CH3)3COCO(NHCH2CO)5OR in anisole, CH2Cl2 and H2O; conditions: for Solubility in g/100 cm^3 CH2 Cl2: solvent CH2Cl2; for Solubility in g/100 cm^3 H2 O: solvent H2O; for Solubility in g/100 cm^3 anisole: solvent anisole
[2] = Partition coefficient of N-tert-butyloxycarbonylpentaglycine esters between CH2Cl2 and H2O
[3] = Measurement of the solubilities of the molecules of formula (L)-seryl-A--L in water; conditions: measured in the filtrate after grinding in water for 15 minutes
Method: Ammonia gas was passed into this solution at room temperature. The ammonium chloride precipitate obtained was rapidly filtered off. […] The product obtained after concentration was immediately ground in water for 15 minutes at room temperature and then filtered off.
The solubility of the product of formula (L)-seryl-A--L was measured in the filtrate.

Solubility in g/100 cm^3 CH2 Cl2 [1] [g/100 cm^3] | Solubility in g/100 cm^3 H2 O [1] [g/100 cm^3] | Solubility in g/100 cm^3 anisole [1] | Partition coefficient between CH2 Cl2 and H2 O [2] | solubility in water at 25° C. [3] [mg/mL] | Structure (SMILES)
> 10 | 0.0016 | 5 g/100 cm^3 | > 1,000 |  | CC(C)(C)OC(=O)NCC(=O)NCC(=O)NCC(=O)NCC(=O)NCC(=O)OCc1cccc(C(=O)OCc2ccc(-c3ccccc3)cc2)c1 [Example R1]
> 10 | 0.0008 | 5 g/100 cm^3 | > 2,000 |  | CC(C)(C)OC(=O)NCC(=O)NCC(=O)NCC(=O)NCC(=O)NCC(=O)OCc1cccc(C(=O)OCc2cccc(Oc3ccccc3)c2)c1 [Example R2]
0.070 | 0.017 | insoluble | 4.1 |  | CC(C)(C)OC(=O)NCC(=O)NCC(=O)NCC(=O)NCC(=O)NCC(=O)OCc1ccccc1 [benzyl]
 |  |  |  | > 100 | N[C@@H](CO)C(=O)OCc1ccccc1 [L-Serine benzyl ester]
0.33 | 0.50 | insoluble | 0.66 |  | COC(=O)CNC(=O)CNC(=O)CNC(=O)CNC(=O)CNC(=O)OC(C)(C)C [CH3]
